In patent US9775844B2, “Heterocyclic compounds and uses thereof” (Infinity Pharmaceuticals, Inc., priority 2014, dated 2017):

Columns and labels:
[1] = tested on: CXCL12-induced pAKT in T-cells; experiment: CXCL12-induced pAKT assay in T-cells; type: cell-based, human; conditions: FIG. 9
Source text: There was a tight correlation between the EC50s observed in the CXCL12-induced pAKT assay and the T-cell migration assay.

[2] = Pharmacokinetics in rat, oral; type: in vivo
Source text: Compound BB's oral exposure is high in rat, dog and monkey. Good oral bioavailability and low clearance in rodent and non-rodent animal species results in high oral exposure.

[3] = Target organ toxicity (TOT) study, 10 days oral; type: in vivo
Method: A target organ toxicity (TOT) study was performed in rats. […] This study assessed clinical observations/mortality, body weights, clinical pathology, toxicokinetics, and histopathology of select tissues. The tissues studied were: Adrenal gland, Bone marrow (femur), Brain, Small Intestine (including GALT), Heart, Large Intestine, Kidney, Stomach, Liver, Pancreas, Spleen, Testis, and Thymus. Doses were selected based on repeat-dose tolerability study, PK and plasma protein binding, and cellular IC50s for PI3K isoforms.

[4] = In vitro toxicology studies
[5] = Stability in simulated gastric fluid; type: physicochemical; conditions: 38°
Source text: The phyiscochemical properties of Compound BB are drug-like, and suitable for use of the compound as a drug.

[6] = Mouse pharmacokinetics, oral single and repeat dose; conditions: in vivo, 10 mg/kg in NMP solution, read-out: Mouse PK AUClast @ 10 mg/kg in NMP solution
GL-261 = GL-261 glioma model with or without temozolomide; type: in vivo, mouse
Method: TMZ was dosed IP 1×/day for 7 days.
Animals: C57 Albino mice (male) from Jackson Labs, n=80. Parameters Evaluated:
In life: Mice were dosed QD with Compound BB. Temozolomide was dosed QD IP, for 7 days. Tumor measurements and bodyweights were taken 2×/week, but caliper and xenogen measurements.
End point analysis: Tumors were cut in half. One half was cut in half again with 1/2 fixed in 10% NBF the other was frozen in OCT for frozen sections. The remaining half was processed to single cell suspention and evaluated by FACS.
PD satilite group—8 mice from the TMZ treated mice and 8 mice from the vehicle treated mice were sacrificed on day 7 post treatment. Tumors were processed to single cell suspention and evaluated by FACS.

[7] = tested on: Cytochrome P450 isoforms (all main CYPs); experiment: Cytochrome P450 inhibition; type: in vitro ADME; conditions: reversible inhibition, all Cyps; read-out: Rev Cyp Inhibition IC50
Source text: (§1) These properties indicate the compound's suitability for in vivo administration.

Cytochrome P450 isoforms = experiment: Cytochrome P450 inhibition; type: in vitro ADME
Source text: as §1

4T1 breast cancer = experiment: Orthotopic 4T1 breast cancer model; type: in vivo; conditions: Compound BB and/or PDL-1 inhibition
CT26 colon carcinoma = experiment: CT26 allograft model of mouse colon cancer; type: in vivo; conditions: FIG. 28
Method: CT26 is an N-nitroso-N-methylurethane-(NNMU) induced, undifferentiated colon carcinoma cell line. It was cloned to generate the cell line designated CT26.WT […] number CRL-2638). 5-6 week old female, Balb/c mice (Jackson Labs) were implanted subcutaneously with 5×10^5 CT26 cells in 200 μl PBS. CT26 cells were cultured in DMEM supplemented with 10% FBS.

P-GP (P-glycoprotein 1) = P-GP (P-glycoprotein 1) (Homo sapiens (Human), UniProt P08183); experiment: P-glycoprotein inhibition; type: in vitro ADME
Source text: Without being bound by a particular theory, the P-gp inhibitor could help maintin levels of the P-gp substrate in tumors overexpressing the P-gp transporter.

Lewis Lung Carcinoma = Lewis Lung Carcinoma model; type: in vivo, mice
[8] = Mouse pharmacokinetics, oral single and repeat dose; type: in vivo; conditions: female mice, 2, 7.5, 15 mg/kg PO
Method: Animals were weighed daily prior to dosing. […] On subsequent dosing days, the animals' condition was noted prior to dosing; the animals were observed within 4 hours of dosing, and at the end of the day.
Samples were collected at pre-dose 0.25, 0.5, 1, 2, 4, 6 and 24 h following the first dose on day 1 and pre-dose (trough), 0.25, 0.5, 1, 2, 4, 6 and 24 h following the final dose on day 3 Animals received a single oral dose daily for 3 consecutive days. Blood was collected by retro-orbital bleeding for all time points on day 1. All other blood sampling was collected by a cardiac puncture. Blood was collected into K2EDTA tubes and placed on wet ice. Within 15 min of collection, the sample was centrifuged at 10,000 rpm at 4° C. for 10 min in a bench top centrifuge and the plasma transferred to a new microcentrifuge tube.
A similar study was carried out using Compound 88. […] Below is a table that details the results for Compound 88: […]

PGP = PGP (Homo sapiens (Human), UniProt P08183); experiment: PGP efflux; type: in vitro ADME
[9] = Pharmacokinetics in rodent and non-rodent animal species; type: in vivo
Source text: as §1

[10] = tested on: collagen induced arthritis; experiment: Rat collagen induced arthritis (CIA) model; type: in vivo
MC38 tumor cells = experiment: MC38 colon cancer model; type: in vivo, mouse
Method: In this model, a syngeneic colon cancer cell line is run subcutaneously. The experimental setup was as follows.
The cell injection volume was 0.05 ml per mouse. When tumors reached an average size of 80-100 mm^3, a pair match was made and treatment began. The tumor was measured by caliper biweekly.
The dosing volume was 5 mL/kg.
For all animals, blood was collected by terminal cardiac puncture under isoflurane anesthesia. The blood was processed for plasma. In addition, tumor samples were collected.
At study end, tumors were isolated, fixed in 10% neutral buffered formalin and embedded in paraffin for histologic analysis. […] T-cells within the tumor sections were identified utilizing a CD3-specific antibody via automated immunohistochemistry equipment (Ventana). Once stained, slides were digitalized via Aperio slide scanning equipment. Next, stained tumor sections were quantified via Definians software to assess the percentage of CD3 positive cells within each tumor.

Sequence of P-GP (P-glycoprotein 1) (P08183 whole entry, species assumed): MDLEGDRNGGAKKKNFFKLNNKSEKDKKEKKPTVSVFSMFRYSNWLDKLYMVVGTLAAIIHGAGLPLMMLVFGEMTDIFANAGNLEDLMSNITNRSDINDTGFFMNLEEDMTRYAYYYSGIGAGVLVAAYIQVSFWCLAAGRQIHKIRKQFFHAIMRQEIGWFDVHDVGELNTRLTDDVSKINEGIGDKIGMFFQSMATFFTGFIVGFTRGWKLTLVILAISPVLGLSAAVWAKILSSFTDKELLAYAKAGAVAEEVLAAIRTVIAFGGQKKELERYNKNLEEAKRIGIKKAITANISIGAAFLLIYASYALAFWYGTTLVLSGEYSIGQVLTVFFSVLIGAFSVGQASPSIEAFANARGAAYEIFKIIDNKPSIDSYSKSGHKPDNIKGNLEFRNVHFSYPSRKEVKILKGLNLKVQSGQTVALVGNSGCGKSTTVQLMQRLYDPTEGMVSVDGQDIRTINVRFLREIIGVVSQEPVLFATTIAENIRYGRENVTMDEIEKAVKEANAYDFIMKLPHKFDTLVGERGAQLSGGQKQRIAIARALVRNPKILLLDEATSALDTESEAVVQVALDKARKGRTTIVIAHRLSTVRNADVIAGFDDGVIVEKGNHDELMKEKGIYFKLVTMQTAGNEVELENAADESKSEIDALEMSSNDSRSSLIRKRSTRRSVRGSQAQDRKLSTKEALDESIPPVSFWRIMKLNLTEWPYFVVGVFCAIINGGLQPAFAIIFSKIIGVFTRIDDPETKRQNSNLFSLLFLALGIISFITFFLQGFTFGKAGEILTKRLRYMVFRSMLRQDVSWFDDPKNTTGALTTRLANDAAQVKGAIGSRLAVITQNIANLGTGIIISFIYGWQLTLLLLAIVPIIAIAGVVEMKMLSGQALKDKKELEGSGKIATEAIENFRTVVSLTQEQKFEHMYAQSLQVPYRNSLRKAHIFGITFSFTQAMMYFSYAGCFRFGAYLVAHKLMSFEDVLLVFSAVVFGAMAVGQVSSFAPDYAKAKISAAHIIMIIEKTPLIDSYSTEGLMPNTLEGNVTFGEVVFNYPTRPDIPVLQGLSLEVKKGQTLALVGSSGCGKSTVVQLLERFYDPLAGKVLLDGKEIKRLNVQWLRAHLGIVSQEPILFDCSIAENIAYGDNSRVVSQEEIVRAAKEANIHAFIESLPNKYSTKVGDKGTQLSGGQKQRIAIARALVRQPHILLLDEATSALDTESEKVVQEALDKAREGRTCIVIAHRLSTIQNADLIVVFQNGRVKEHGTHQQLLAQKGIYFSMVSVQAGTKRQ
Sequence of PGP (P08183 whole entry, species assumed): as above

C[C@H](NC(=O)c1c(N)nn2cccnc12)c1cc2cccc(C#Cc3cnn(C)c3)c2c(=O)n1-c1ccccc1 [Compound BB]
inhibition of CXCL12-induced pAKT in T-cells [1]: inhibited CXCL12-induced pAKT in T-cells more strongly
oral exposure (plasma concentrations within 24 hours) ([2]; rat, 7.5 mg/kg oral): high
dose-exposure proportionality (AUC 0-last) ([2]; rats, oral 10, 25, and 100 mg/kg): good dose-exposure proportionality
decrease in body weights compared to vehicle ([3]; high dose animals (50 mg/kg/day)): 5-8%
histopathology, thymus ([3]; males at ≧7.5 mg/kg/day, females at 50 mg/kg/day): minimal/mild lymphoid depletion
histopathology, spleen (marginal zone and PALS) ([3]; primarily at doses ≧20 mg/kg/day): minimal/mild lymphoid depletion
clinical pathology ([3]; primarily in 20 and 50 mg/kg/day groups): minimal changes in neutrophils, lymphocytes, and fibrinogen
histopathology, gross changes ([3]; rats, oral, 10 days): no significant gross changes
tolerability ([3]; rats, oral, 10 days, 1 to 50 mg/kg/day): well-tolerated
mortality and clinical signs ([3]; rats, oral, 10 days, any dose level): No mortality or clinical signs
toxicity expected from in vitro toxicology studies [4]: very low toxicity
stability in simulated gastric fluid [5]: > 4 h
AUC(0-t) [6]: 83.7 µg·h/mL
tumor volume, GL-261, compared to vehicle (GL-261; 15 mg/kg QD PO following TMZ @ 1 mg/kg): significant reduction in tumor volume
tumor volume, GL-261, compared to vehicle (GL-261; treated from the start of treatment, 15 mg/kg QD PO): significant reduction in tumor volume
IC50 [7]: > 10 µM
CYP inhibition (Cytochrome P450 isoforms): does not substantially inhibit CYP
reversible inhibition of main Cytochrome P450 isoforms (Cytochrome P450 isoforms): low potential for reversible inhibition
Time dep Cyp Inhibition @ 10 uM (Cytochrome P450 isoforms; time dependent, 10 uM): Neg
total luciferase flux (4T1 breast cancer): reduced total luciferase flux
tumor growth (4T1 breast cancer): reduced tumor growth
MDSC expansion after cyclophosphamide treatment (CT26 colon carcinoma): decreased
P-GP inhibition (P-GP (P-glycoprotein 1)): appears to be an inhibitor of P-GP
inhibition at 10 µM (P-GP (P-glycoprotein 1); 10 uM, read-out: PGP Inhibition @ 10 uM): 98%
IC50 (P-GP (P-glycoprotein 1); read-out: PGP Inhibition IC50): < 1 µM
single agent activity (Lewis Lung Carcinoma): demonstrates single agent activity
stability in serum (unbound plasma concentration time course) [8]: good stability in serum
PGP efflux@ 10 uM (PGP): No
clearance ([9]; in vivo): low clearance
half-life in vivo ([9]; in vivo): long half-life
volume of distribution ([9]; in vivo): high volume of distribution
oral bioavailability ([9]; rodent and non-rodent animal species): high oral bioavailability
bone resorption score reduction ([10]; 0.5 mg/kg): 25%
cartilage damage score reduction ([10]; 0.5 mg/kg): 28%
inflammation score reduction ([10]; 0.5 mg/kg): 27%
pannus score reduction ([10]; 0.5 mg/kg): 28%
periosteal bone formation score reduction ([10]; 0.5 mg/kg): 52%
periosteal bone widths reduction ([10]; 0.5 mg/kg): 47%
reduction in summed scores ([10]; 0.5 mg/kg, non-significant): 31%
reduction of scored parameters ([10]; 0.5 mg/kg, non-significant): 27-52%
bone resorption score reduction ([10]; 1.5 mg/kg): 44%
cartilage damage score reduction ([10]; 1.5 mg/kg): 45%
inflammation score reduction ([10]; 1.5 mg/kg): 36%
pannus score reduction ([10]; 1.5 mg/kg): 44%
periosteal bone formation score reduction ([10]; 1.5 mg/kg): 52%
periosteal bone widths reduction ([10]; 1.5 mg/kg): 50%
reduction in summed scores ([10]; 1.5 mg/kg, significant): 42%
bone resorption score reduction ([10]; 5 mg/kg): 65%
cartilage damage score reduction ([10]; 5 mg/kg): 59%
inflammation score reduction ([10]; 5 mg/kg): 57%
pannus score reduction ([10]; 5 mg/kg): 71%
periosteal bone formation score reduction ([10]; 5 mg/kg): 82%
periosteal bone widths reduction ([10]; 5 mg/kg): 82%
reduction in summed scores ([10]; 5 mg/kg, significant): 64%
reductions in all scores ([10]; 5 mg/kg, significant): 57-82%
mean ankle diameter ([10]; day 9 to day 17, FIG. 1): therapeutic effects
intratumoral CD3+ T cells (MC38 tumor cells; MC38 tumors vs vehicle, IHC): significantly more intratumoral CD3+T cells
tumor growth, MC38 colon cancer model (MC38 tumor cells; monotherapy, FIG. 29A): significantly inhibited tumor growth
